The assay deals with fibromyalgia pain in soft tissue regions and myofacial regions. The note with it: for patient-reported pain levels in the treated regions: daily use in a topical form on skin adjacent to regions where pain is experienced, during treatment; for patient-reported pain levels after treatment is halted: treatment halted after several months, report weeks later. From the text:
The following prophetic examples are of cases that address the painful experiences associated with fibromyalgia. The examples also describe a new, safe, simple and until now, an unknown pharmaceutical solution to the problem of fibromyalgia syndrome: the novel use of vasodilators such as calcium channel blockers, ACE inhibitors, and angiotensin receptor blockers. Vasodilators are not analgesics, but they resolve or mitigate the pain associated with fibromyalgia.
A patient is diagnosed with fibromyalgia, and suffers from pain in soft tissue regions and myofacial regions. […] After several months, treatment is halted.
A patient is diagnosed with fibromyalgia, and suffers from pain in soft tissue regions and myofacial regions. Daily use of Amlodipine in a topical form is prescribed for application to skin adjacent to regions where pain is experienced. […] After several months, treatment is halted.
A patient is diagnosed with fibromyalgia, and suffers from pain in soft tissue regions and myofacial regions. Daily use of enalapril in a topical form is prescribed for application to skin adjacent to regions where pain is experienced. […] After several months, treatment is halted.
A patient is diagnosed with fibromyalgia, and suffers from pain in soft tissue regions and myofacial regions. Daily use of lisinopril in a topical form is prescribed for application to skin adjacent to regions where pain is experienced. […] After several months, treatment is halted.
A patient is diagnosed with fibromyalgia, and suffers from pain in soft tissue regions and myofacial regions. Daily use of losartan in a topical form is prescribed for application to skin adjacent to regions where pain is experienced. […] After several months, treatment is halted.
A patient is diagnosed with fibromyalgia, and suffers from pain in soft tissue regions and myofacial regions. Daily use of irbesartan in a topical form is prescribed for application to skin adjacent to regions where pain is experienced. […] After several months, treatment is halted.

Structures are written as SMILES.

Consider `CCCCc1nc(Cl)c(CO)n1Cc1ccc(-c2ccccc2-c2nn[nH]n2)cc1` [losartan], for which the “patient-reported pain levels in the treated regions” value is “reduction in pain levels” and the “patient-reported pain levels after treatment is halted” value is on record as “reduction in pain levels has been maintained”.

Consider `NCCCC[C@H](N[C@@H](CCc1ccccc1)C(=O)O)C(=O)N1CCC[C@H]1C(=O)O` [lisinopril], for which the “patient-reported pain levels in the treated regions” value was “reduction in pain levels” and the “patient-reported pain levels after treatment is halted” value is “reduction in pain levels has been maintained”.

Turning to `CCCCC1=NC2(CCCC2)C(=O)N1Cc1ccc(-c2ccccc2-c2nnn[nH]2)cc1` [irbesartan], the “patient-reported pain levels in the treated regions” value is given as “reduction in pain levels” and the “patient-reported pain levels after treatment is halted” value is reported as “reduction in pain levels has been maintained”.

Regarding `CCOC(=O)[C@H](CCc1ccccc1)N[C@@H](C)C(=O)N1CCC[C@H]1C(=O)O` [enalapril], the “patient-reported pain levels in the treated regions” value is on record as “reduction in pain levels” and the “patient-reported pain levels after treatment is halted” value is “reduction in pain levels has been maintained”.

The values are drawn from US20220241264A1, “METHODS FOR PREVENTION AND TREATMENT OF FIBROMYALGIA BY CONTACT VASODILATORS” (priority 2019, published 2022).
